Key:
TNF-α = experiment: ELISA, TNF-α production caused by fine dust; assay type: cell-based, human; details: HaCaT cells, fine dust 10 ug/ml plus peptide 20 uM, 24 hours; fine dust only = 100, no treatment = 0
Protocol: (§1) 2. Specifically, the cultured HaCaT cells were treated with 10 ug/ml of fine dust and 20 uM of the peptide produced in Example 1 (AhR Pep1 to AhR Pep4) respectively, and incubated for 24 hours. Then, IL-6 and TNF-α contents were measured using a […] enzyme-linked immunosorbent assay (ELISA) kit (R&D Systems Inc, Minneapolis, Minn., USA).

IL-6 = experiment: ELISA, IL-6 production caused by fine dust; assay type: cell-based, human; details: HaCaT cells, fine dust 10 ug/ml plus peptide 20 uM, 24 hours; fine dust only = 100, no treatment = 0
Protocol: as §1

Substance	TNF-α production (%) (TNF-α)	IL-6 production (%) (IL-6)
Asp-Arg-Leu-Asn (DRLN; Peptide 1) [AhR Pep 1]	79	76
Asp-Arg-Leu (DRL; Peptide 2) [AhR Pep 2]	93	87
Asn-Thr-Glu (NTE; Peptide 4) [AhR Pep 4]	82	74
Asn-Thr-Glu-Leu (NTEL; Peptide 3) [AhR Pep 3]	89	83

— patent US20220048945A1, “PEPTIDE INHIBITING ACTIVITY OF ARYL HYDROCARBON RECEPTOR AND COSMETIC COMPOSITION USING SAME” (SUPADELIXIR INC., priority 2019, published 2022)
